US10765114B2, “4-amino-6-(pyridyl and 2-substitutedphenyl)-picolinates and 6-amino-2-(pyridyl and 2-substitutedphenyl)-pyrimidine-4-carboxylates and their use as herbicides” (Dow AgroSciences LLC, priority 2013, dated 2020)

Each compound was assayed on Key Grass and Sedge Weeds as well as Grass Crops (assay: Post-Emergent Test II (Table 6)). Settings: post-emergence, 336 h, CYPSS, 70 g ai/ha, 14 days after application, read-out: Visual Growth Reduction (%) 14 Days After Application CYPSS.
Type: in vivo
Outline: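 Visual injury ratings (0 = no injury, 100 = complete kill) were taken 14 days after treatment relative to untreated plants. Seedlings at the first or second true leaf stage received an overhead spray at 187 L/ha, and solvent-blank sprayed plants served as controls.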
`Nc1c(Cl)c(C(=O)O)nc(-c2ccc(C(F)(F)F)nc2)c1Cl` [Compound 33] gave a pest or weed control at 70 g/ha of 95 to 100%.

Same assay, conditions: post-emergence, 336 h, CYPSS, 140 g ai/ha, 14 days after application, read-out: Visual Growth Reduction (%) 14 Days After Application CYPSS
`Nc1c(Cl)c(C(=O)O)nc(-c2ccc(C(F)(F)F)nc2)c1Cl` [Compound 33] showed a pest or weed control at 140 g/ha of 95 to 100%.

Same assay, conditions: post-emergence, 336 h, DIGSA: crabgrass (Digitaria sanguinalis), 70 g ai/ha, 14 days after application, read-out: Visual Growth Reduction (%) 14 Days After Application DIGSA
Work on `Nc1c(Cl)c(C(=O)O)nc(-c2ccc(C(F)(F)F)nc2)c1Cl` [Compound 33] yielded a pest or weed control at 70 g/ha of 45 to 59%.

Same assay, conditions: post-emergence, 336 h, DIGSA: crabgrass (Digitaria sanguinalis), 140 g ai/ha, 14 days after application, read-out: Visual Growth Reduction (%) 14 Days After Application DIGSA
Work on `Nc1c(Cl)c(C(=O)O)nc(-c2ccc(C(F)(F)F)nc2)c1Cl` [Compound 33] yielded a pest or weed control at 140 g/ha of 60 to 74%.

Same assay, conditions: post-emergence, 336 h, ECHSS, 70 g ai/ha, 14 days after application, read-out: Visual Growth Reduction (%) 14 Days After Application ECHSS
For `Nc1c(Cl)c(C(=O)O)nc(-c2ccc(C(F)(F)F)nc2)c1Cl` [Compound 33], the pest or weed control at 70 g/ha was 60 to 74%.

Same assay, conditions: post-emergence, 336 h, ECHSS, 140 g ai/ha, 14 days after application, read-out: Visual Growth Reduction (%) 14 Days After Application ECHSS
With `Nc1c(Cl)c(C(=O)O)nc(-c2ccc(C(F)(F)F)nc2)c1Cl` [Compound 33] the pest or weed control at 140 g/ha was 60 to 74%.

Same assay, conditions: post-emergence, 336 h, ORYSS (crop), 70 g ai/ha, 14 days after application, read-out: Visual Growth Reduction (%) 14 Days After Application ORYSS
Compound `Nc1c(Cl)c(C(=O)O)nc(-c2ccc(C(F)(F)F)nc2)c1Cl` [Compound 33] has a pest or weed control at 70 g/ha of 0 to 29%.

Same assay, conditions: post-emergence, 336 h, ORYSS (crop), 140 g ai/ha, 14 days after application, read-out: Visual Growth Reduction (%) 14 Days After Application ORYSS
`Nc1c(Cl)c(C(=O)O)nc(-c2ccc(C(F)(F)F)nc2)c1Cl` [Compound 33] gave a pest or weed control at 140 g/ha of 0 to 29%.

Same assay, conditions: post-emergence, 336 h, SETFA: giant foxtail (Setaria faberi), 70 g ai/ha, 14 days after application, read-out: Visual Growth Reduction (%) 14 Days After Application SETFA
With `Nc1c(Cl)c(C(=O)O)nc(-c2ccc(C(F)(F)F)nc2)c1Cl` [Compound 33] the pest or weed control at 70 g/ha was 75 to 84%.

Same assay, conditions: post-emergence, 336 h, SETFA: giant foxtail (Setaria faberi), 140 g ai/ha, 14 days after application, read-out: Visual Growth Reduction (%) 14 Days After Application SETFA
`Nc1c(Cl)c(C(=O)O)nc(-c2ccc(C(F)(F)F)nc2)c1Cl` [Compound 33] showed a pest or weed control at 140 g/ha of 75 to 84%.

Same assay, conditions: post-emergence, 336 h, SORVU: grain sorghum (Sorghum vulgare), 70 g ai/ha, 14 days after application, read-out: Visual Growth Reduction (%) 14 Days After Application SORVU
`Nc1c(Cl)c(C(=O)O)nc(-c2ccc(C(F)(F)F)nc2)c1Cl` [Compound 33] gave a pest or weed control at 70 g/ha of 75 to 84%.

Same assay, conditions: post-emergence, 336 h, SORVU: grain sorghum (Sorghum vulgare), 140 g ai/ha, 14 days after application, read-out: Visual Growth Reduction (%) 14 Days After Application SORVU
With `Nc1c(Cl)c(C(=O)O)nc(-c2ccc(C(F)(F)F)nc2)c1Cl` [Compound 33] the pest or weed control at 140 g/ha was 75 to 84%.

Same assay, conditions: post-emergence, 336 h, TRZSS (crop), 70 g ai/ha, 14 days after application, read-out: Visual Growth Reduction (%) 14 Days After Application TRZSS
`Nc1c(Cl)c(C(=O)O)nc(-c2ccc(C(F)(F)F)nc2)c1Cl` [Compound 33] showed a pest or weed control at 70 g/ha of 30 to 44%.

Same assay, conditions: post-emergence, 336 h, TRZSS (crop), 140 g ai/ha, 14 days after application, read-out: Visual Growth Reduction (%) 14 Days After Application TRZSS
`Nc1c(Cl)c(C(=O)O)nc(-c2ccc(C(F)(F)F)nc2)c1Cl` [Compound 33] gave a pest or weed control at 140 g/ha of 45 to 59%.

Same assay, conditions: post-emergence, 336 h, ZEAMX: maize, corn (Zea mays), 70 g ai/ha, 14 days after application, read-out: Visual Growth Reduction (%) 14 Days After Application ZEAMX
With `Nc1c(Cl)c(C(=O)O)nc(-c2ccc(C(F)(F)F)nc2)c1Cl` [Compound 33] the pest or weed control at 70 g/ha was 60 to 74%.
